From patent US20160143944A1, “ANTIMICROBIAL COMPOSITIONS COMPRISING HYPOCHLOROUS ACID AND SILVER” (PURICOE, INC., priority 2013, published 2016)

Test system: Pseudomonas aeruginosa biofilm
Test: in vitro wound biofilm model (collagen matrix), biocidal effect
Type: cell-based
Details: 20 min at 35° C., 24 h biofilm in collagen matrix
Description: A biofilm test was conducted using hypochlorous acid solutions containing either 200 ppm or 600 ppm AFC. A solution containing a […] combination of silver chelate (30 ppm) and hypochlorous acid (600 ppm) which yielded a final concentration of 200 ppm AFC was also tested. Specifically, the biocidal effects of the solutions were tested using an in vitro wound biofilm model as described in […] et al. (2009), Molnlycke Healthcare. Briefly, a collagen solution was prepared in simulated wound fluid and the collagen was allowed to polymerize at 35° C. for one hour. The collagen matrix was subsequently innoculated with approximately 10^4 colony forming units (CFU) of Pseudomonas aeruginosa and incubated for twenty-four hours. The hypochlorous acid solutions were added to each matrix and incubated at 35° C. for twenty minutes. The tubes were centrifuged to separate the test solutions from the matrices. Subsequently, each matrix was digested with collagenase, washed and any surviving cells were recovered. A biofilm test was conducted to compare the biocidal effects of various hypochlorous acid solutions with or without silver additives, either in form of potassium silver citrate or silver chelate. Specifically, the effects of the solutions on P. aeruginosa biofilm were assessed using an in vitro wound biofilm model as described above. […]

## OCl [hypochlorous acid solution, hypochlorous acid]
200 ppm AFC hypochlorous acid solution
  log reduction of P. aeruginosa colony forming units (CFU): one
600 ppm AFC hypochlorous acid solution
  log reduction of P. aeruginosa colony forming units (CFU): seven
